Results as given in patent US5164196A (priority 1990, dated 1992).

Target: crotoxin complex (1:1 complex of crotoxin A and crotoxin B) from Crotalus durissus terrificus venom (Crotalus durissus terrificus, UniProt P0CAS2)
Format: biochemical

Sequence of crotoxin complex (1:1 complex of crotoxin A and crotoxin B) from Crotalus durissus terrificus venom (P0CAS2 whole entry, looked up, one chain of several): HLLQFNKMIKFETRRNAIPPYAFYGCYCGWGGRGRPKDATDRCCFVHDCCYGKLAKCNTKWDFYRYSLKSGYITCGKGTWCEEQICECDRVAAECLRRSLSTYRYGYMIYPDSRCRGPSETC

Structure (SMILES): O=C(CBr)c1ccc(Br)cc1 [p-bromophenacylbromide]
- reaction with p-bromophenacyl bromide: does not react
